Tests used:
Experimental log P = format: physicochemical
[1] = Tetrazine stability in PBS buffer in ambient light at 25° C.; format: physicochemical; details: PBS buffer pH 7.4, ambient light, day 0-5
Procedure: Solutions (3 mL) of tetrazine 5b, 5l and 6c (400 μM) were prepared in PBS buffer (pH 7.4) in vials and stored in ambient light at 25° C. Tetrazine concentrations were determined by recording the absorbance at 518 nm (6c) and 520 nm (5b and 5l) in cuvettes in day 0, 1, 3 and 5. A solution of 6a (50 μM) was prepared in PBS buffer (pH 7.4) in vials and stored in ambient light at room temperature. Tetrazine concentration was determined by recording the absorbance at 520 nm in cuvettes at day 0, 1, 3 and 5.

[2] = Stopped-flow kinetic analysis of tetrazines with eq-5-hydroxy-trans-cyclooctene in PBS buffer at 25° C.; details: for k2, second order rate constant / kobs: PBS pH 7.4, 25° C.; for k2, second order rate constant: linear regression of kobs; for kobs: 0.025 mM tetrazine; for krel: relative to 5b, PBS, 25° C.
Procedure: Solutions (5 mL) of tetrazines 5b, 6c, 5l, 6a and 4f (0.050 mM) were prepared in PBS buffer (pH 7.4). Solutions (10 mL) of eq-5-hydroxy-trans-cyclooctene (0.50, 0.60, 0.70, 0.80 mM) were prepared in PBS buffer (pH 7.4). The reactions between tetrazines and trans-cyclooctene were measured under pseudo-first order conditions using SX 18MV-R stopped-flow spectrophotometer (Applied Photophysics Ltd.). Each solution of tetrazine and trans-cyclooctene were injected in equal volumes via 3 mL syringes into the stopped-flow instrument at 25° C., resulting in final concentration of 0.025 mM of tetrazines and 0.25, 0.30, 0.35, 0.40 mM trans-cyclooctene. The reaction was monitored by the decay of absorbance associated with the tetrazines (5b at 263 nm, 6c at 268 nm, 5l at 274 nm, 6a at 296 nm, 4f at 266 nm). Reaction were repeated in triplicate. With Prism software, an observed rate constant, kobs, was obtained by nonlinear regression. Second order rate constants, k2, were calculated by linear regression between kobs and final concentration of trans-cyclooctene.

[3] = Tetrazine stability in Opti-MEM media in ambient light at 25° C.; format: physicochemical; details: 400 μM
Procedure: Solutions (10 mL) of tetrazine 5b and 6c (400 μM) were prepared in Opti-MEM media in vials and stored in ambient light at 25° C. 2 mL of solution was extracted by 2 mL of Et2O in different time point. Tetrazine concentrations were determined by recording the absorbance of Et2O at 545 nm.

human MAGL enzyme = target: T1, human MAGL enzyme (Homo sapiens, UniProt Q99685); test: MAGL in vitro activity assay (7-HCA substrate, fluorescence); format: biochemical; details: human MAGL pre-treated 30 min at room temperature, 7-HCA substrate 1 h; read-out: IC50, inhibition of MAGL activity in vitro
T1 sequence (Q99685 1-303): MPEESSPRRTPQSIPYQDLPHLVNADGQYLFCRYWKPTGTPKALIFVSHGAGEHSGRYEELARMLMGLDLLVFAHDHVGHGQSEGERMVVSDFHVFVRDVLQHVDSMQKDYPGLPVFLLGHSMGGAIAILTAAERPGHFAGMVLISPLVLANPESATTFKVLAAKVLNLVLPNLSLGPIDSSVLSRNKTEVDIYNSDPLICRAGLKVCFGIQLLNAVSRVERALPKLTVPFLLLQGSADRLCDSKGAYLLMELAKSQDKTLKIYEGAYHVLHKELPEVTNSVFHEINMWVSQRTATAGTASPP
Procedure: MAGL in vitro activity assay. The MAGL in vitro activity assay was performed based on a reported protocol. Briefly, human MAGL enzyme was pre-treated with compounds at room temperature for 30 min, and subsequently incubated with 7-hydroxycoumarinyl arachidonate (7-HCA) as a substrate at room temperature for 1 h. The fluorescence signals were measured on an Envision plate reader (excitation 355 nm, emission 460 nm).

MAGL = test: Cellular labeling kinetics of TCO-TAMRA with MAGL probes in live human brain vascular pericytes; format: cell-based; details: for extent of MAGL labeling at the probe concentration used: 100c 1 μM or 12 32 nM, 37° C., 1 h
Procedure: To measure the cellular labeling kinetics of TCO-TAMRA with 100c and 12, live cells were treated with 100c (1 μM) or 12 (32 nM) at 37° C. for 1 h. […] Subsequently, the cells were washed with fresh growth media, which were placed with fresh media containing 50 nM, 200 nM, or 2 μM of TCO-TAMRA, and the cells were incubated at 37° C. for 2, 5, 10, 15, 20, 30, and 60 min. To quench the reaction, the media were replaced with PBS containing 100 μM tetrazine amine, and the cells were washed with cold PBS and harvested with a scrapper.
The suspensions were centrifuged at 10,000×g for 1 min at 37° C., and the cell pellets were lysed in PBS containing 0.25% sodium dodecyl sulfate (SDS) with sonication. The protein concentration was measured with a bicinchoninic acid (BCA) assay kit (Thermo Scientific) and normalized.
In-gel fluorescence and data analysis. Same procedure as described in Example 17 was used.

endogenous MAGL = target: T2, endogenous MAGL (Homo sapiens, UniProt Q99685); test: Labeling of endogenous MAGL in live cells, gel-based ABPP with TCO-TAMRA; format: cell-based; details: human brain vascular pericytes, probe 1 h, 2 μM TCO-TAMRA 30 min
T2 sequence (Q99685 1-303): T1 sequence (Q99685 1-303)
Procedure: Cell culture and probe treatment. Human brain vascular pericytes were cultured in Dulbecco's Modified Eagle Medium/Nutrient Mixture F-12 (DMEM/F-12) GlutaMAX media supplemented with 5% heat-inactivated fetal bovine serum (HI FBS), 1× pericyte growth supplement (PGS), and 1× penicillin-streptomycin at 37° C. with 5% CO2 in a humidified environment. Probe treatment was performed in duplicates. Cells were plated in 6-well plates and cultured overnight in growth media. Live cells were then treated with 300 nM KML29 as a competitor compound (or DMSO as a control) at 37° C. for 1 h. Cells were subsequently treated with probe 9 (0.3 nM-3.2 μM) at 37° C. for 1 h (cells pre-treated with KML29 were treated with 32 nM of probe 9), after which the cells were washed with fresh growth media. The media were then placed with fresh media containing 2 μM of TCO-TAMRA, and the cells were incubated at 37° C. for 30 min. To quench the reaction, the media were replaced with PBS containing 100 μM tetrazine amine, and the cells were washed with cold PBS and harvested with a scrapper. The suspensions were centrifuged at 10,000×g for 1 min at 37° C., and the cell pellets were lysed in PBS containing 0.25% sodium dodecyl sulfate (SDS) with sonication. The protein concentration was measured with a bicinchoninic acid (BCA) assay kit (Thermo Scientific) and normalized. In-gel fluorescence and data analysis. The proteomes were analyzed with 1.0 mm thick 4-12% bis-tris 15-well protein gels in 2-(N-morpholino)ethanesulfonic acid (MES) buffer. The gels were scanned with a Typhoon FLA 9500 Biomolecular Imager (GE Healthcare) with the TAMRA channel with 532 nm excitation and a 575 nm long pass emission filter. To measure the total protein loading, the gels were treated with ClearPage Instant Blue (CBS Scientific) overnight, and after brief destaining with water, scanned with an Odyssey Imager (Li-COR) at the 700 nm channel. The in-gel fluorescence images were processed with ImageJ software (v1.47, NIH), and the intensities were quantified with Image Studio (v5.2, Li-COR) with background subtraction. The coomassie images were processed and quantified with the Image Studio software with background subtraction. For analysis of the cellular potency, the in-gel fluorescence intensities of the two MAGL bands were averaged, normalized with the total coomassie intensity of the corresponding sample, and fitted with a dose-response equation with Prism v7.02 (GraphPad). […] The media were then placed with fresh media containing 2 μM of TCO-TAMRA, and the cells were incubated at 37° C. for 30 min. […] The protein concentration was measured with a bicinchoninic acid (BCA) assay kit (Thermo Scientific) and normalized. In-gel fluorescence and data analysis. […]

[4] = Stopped-flow kinetic analysis of MAGL tetrazines with eq-5-hydroxy-trans-cyclooctene in MeOH at 25° C.; details: for kobs: 0.04 mM tetrazine, 0.40 mM trans-cyclooctene, MeOH; for kobs / krel: 25° C.; for krel: relative to 12, MeOH
Procedure: Solutions (3 mL) of tetrazines 100a, 100b, 100c and 12 (0.080 mM) was prepared in MeOH. Solutions (3 mL) of eq-5-hydroxy-trans-cyclooctene (0.80 mM) were prepared in MeOH. The reactions between tetrazines and trans-cyclooctene were measured under pseudo-first order conditions using SX 18MV-R stopped-flow spectrophotometer (Applied Photophysics Ltd.). Each solution of tetrazine and trans-cyclooctene were injected in equal volumes via 3 mL syringes into the stopped-flow instrument at 25° C., resulting in final concentration of 0.04 mM of tetrazines and 0.40 mM trans-cyclooctene. The reaction was monitored by the decay of absorbance associated with the tetrazines (10a and 10b at 300 nm, 10c at 280 nm). Reaction were repeated in triplicate. With Prism software, an observed rate constant, kobs, was obtained by nonlinear regression.

[5] = 30° C. to 400/500° C. at 5° C./min
Procedure: DSC data was obtained on a Mettler-Toledo Differential Scanning Calorimeter 3+. Samples were loaded into a goldplated high-pressure pan, held at 30° C. for 10 minutes, then a gradient of 30° C. to 400/500° C. at 5° C./min.

Row | Structure (SMILES) | logP (Experimental log P) | decomposition per day [1] [%] | k2, second order rate constant [2] [M⁻¹ s⁻¹] | kobs ([2]; TCO 0.25 mM) [s⁻¹] | kobs ([2]; TCO 0.30 mM) [s⁻¹] | kobs ([2]; TCO 0.35 mM) [s⁻¹] | kobs ([2]; TCO 0.40 mM) [s⁻¹] | krel [2] | decomposition per day [3] [%] | extent of MAGL labeling at the probe concentration used (MAGL) | kobs [4] [s⁻¹] | krel [4] | further results
1 | COC(=O)CCc1nnc(-c2ccccc2)nn1 [5b, methyl 3-(6-phenyl-1,2,4,5-tetrazin-3-yl)propanoate] | 2.2 | 1.8 | 197.9 ± 13.36 | 0.57 | 0.065 | 0.075 | 0.87 | 1.0 | 6.7 | – | – | – | –
2 | C=C(OCC)c1nnc(CCC(=O)OC)nn1 [6c, methyl 3-(6-(1-ethoxyvinyl)-1,2,4,5-tetrazin-3-yl)propanoate] | 0.89 | 3.9 | 833 ± 35.7 | 0.20 | 0.24 | 0.28 | 0.33 | 4.2 | 10.8 | – | – | – | times faster than 5b ([2]; reaction with 5-hydroxyTCO): 4.2 times
3 | O=C(OC(C(F)(F)F)C(F)(F)F)N1CCC(CNS(=O)(=O)c2ccc(-c3nncnn3)cc2)CC1 [100c, 1,1,1,3,3,3-hexafluoropropan-2-yl 4-((4-(1,2,4,5-tetrazin-3-yl)phenylsulfonamido)methyl)piperidine-1-carboxylate] | – | – | – | – | – | – | – | – | – | full labeling of MAGL | 0.2011 | 162 | IC50 (human MAGL enzyme): 16 nM; time at which labeling was complete (MAGL; 100c 1 μM 1 h, then 2 μM TCO-TAMRA, first data point): ≤ 2 min; labeling of MAGL by gel-based ABPP (endogenous MAGL): strong labeling of MAGL; times more reactive than 100b ([4]; stopped flow kinetics with 5-hydroxyTCO): 6.5 times
4 | Cc1nnc(SCc2ccc(-c3ccccc3)cc2)nn1 [b-Tz, 3-([1,1′-biphenyl]-4-ylmethylthio)-6-methyl-1,2,4,5-tetrazine] | – | – | – | – | – | – | – | – | – | – | – | – | DSC onset temperature [5]: 170 °C; DSC transition enthalpy [5]: 900 J/g
5 | Cc1nnc(-c2ccc(-n3ccc(C4CCN(C(=O)OC(C(F)(F)F)C(F)(F)F)CC4)n3)cc2)nn1 [compound 12, reference compound] | – | – | – | – | – | – | – | – | – | full labeling of MAGL | 0.001244 | 1 | –
